Here are results for 3 molecules from BindingDB's records for doi:10.1021/jm9708341 (University of Leipzig, 1998).

As a reminder, the koff is the first-order rate constant of dissociation. A high value points to fast dissociation. The kon is a measure of how fast the partners come together.

In the experiment the target is T1, Neutrophil elastase (Homo sapiens, UniProt P08246).
T1 sequence (P08246 whole entry): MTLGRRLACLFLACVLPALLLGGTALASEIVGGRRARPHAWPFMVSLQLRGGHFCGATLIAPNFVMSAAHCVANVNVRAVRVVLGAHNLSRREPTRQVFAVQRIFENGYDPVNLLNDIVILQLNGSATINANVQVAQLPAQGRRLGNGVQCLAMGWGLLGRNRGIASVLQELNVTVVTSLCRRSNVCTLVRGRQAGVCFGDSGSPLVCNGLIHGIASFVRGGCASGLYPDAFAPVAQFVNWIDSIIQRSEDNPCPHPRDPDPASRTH
Nature of the experiment: Steady state inhibition constant for Human Leukocyte Elastase inhibition. The settings on record: for kon: read-out: kon (M-1-s-1).

Molecules are shown by their SMILES.

As to `Cc1sc2nc(NC(C)C)oc(=O)c2c1C` [2-Isopropylamino-5,6-dimethyl-thieno[2,3-d][1,3]oxazin-4-one], the koff turned out to be 8.5e-05 s⁻¹ and the kon is 1130 M⁻¹ s⁻¹.

Regarding `CSc1nc2sc3c(c2c(=O)o1)CCCC3` [2-Methylsulfanyl-5,6,7,8-tetrahydro-benzo[4,5]thieno[2,3-d][1,3]oxazin-4-one], the koff is 0.00156 s⁻¹ and the kon was 272000 M⁻¹ s⁻¹.

In the case of `COC(=O)CSc1nc2sc(C)c(C)c2c(=O)o1` [(5,6-Dimethyl-4-oxo-4H-thieno[2,3-d][1,3]oxazin-2-ylsulfanyl)-acetic acid methyl ester], the koff worked out at 0.000163 s⁻¹ and the association rate constant (kon) was determined as 685 M⁻¹ s⁻¹.
